Counter-ions that a name gives are not always drawn. Like-named read-outs stand apart in the source and are kept apart here. Starred links: 1 amine or outer side, 2 acyl side, 3 side chain; linkers in the order of their positions; H or OH if unused. Positions of bridges follow the written chain, without caps; N, C: chain ends. Non-standard residues stand in square brackets, D forms with d. Residues, ends and D or L forms follow the SMILES beside them. *: point of attachment. X1 = CCCCCCCCCCCCCC(=S)N(C)CCCC[C@H](N[*:1])C(=O)[*:2]; Tfa = O=C(C(F)(F)F)*
What was measured:
Sirt6 [1] = target: T1, Sirt6 (Homo sapiens, UniProt Q8N6T7); experiment: Ki determination with substrate 3, 96-well MTP fluorescence reader; type: biochemical; conditions: for type of inhibition with respect to the peptide substrate: Sirt6, substrate 3
T1 construct: His-tag; made in house; host or cells: E. coli BL21 DE3
T1 sequence (Q8N6T7 whole entry): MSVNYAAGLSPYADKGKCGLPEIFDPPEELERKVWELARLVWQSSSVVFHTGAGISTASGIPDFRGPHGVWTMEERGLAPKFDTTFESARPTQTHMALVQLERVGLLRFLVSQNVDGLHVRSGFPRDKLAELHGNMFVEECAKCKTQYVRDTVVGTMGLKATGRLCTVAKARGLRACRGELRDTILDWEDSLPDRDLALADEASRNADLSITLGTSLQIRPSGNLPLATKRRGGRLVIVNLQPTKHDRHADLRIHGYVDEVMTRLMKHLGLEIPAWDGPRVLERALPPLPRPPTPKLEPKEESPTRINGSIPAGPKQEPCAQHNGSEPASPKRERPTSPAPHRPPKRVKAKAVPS
Procedure: All measurements were done in duplicates.
(§1) Supplementary Figure S13. […] Data are presented as mean ± s.d. (n=2) and lines represent the Michaelis-Menten-plot (left) and secondary plots (right). The apparent KM or Vmax^app-1 values from v/[S] characteristics were plotted against the corresponding inhibitor concentration.
as §1, with “S14. […] The reactions were performed with 0.5 µM Sirt6 and either 500 µM NAD^+ and varying concentrations of 3 (2-100 µM).” for “S13.”, “apparent” for “apparent KM or”
Supplementary Figure S15. Kinetic characteristics for sirtuin inhibitor 8. The reactions were performed with 0.01 µM Sirt2 /0.1 µM Sirt3 /0.5 µM Sirt6 and 500 µM NAD^+ and varying concentrations of 3 (0.07-100 µM). […] Data are presented as mean ± s.d. (n=2) and lines represent the Michaelis-Menten-plot (left) and secondary plots (right). The apparent Vmax^app-1 values from v/[S] characteristics were plotted against the corresponding inhibitor concentration.

Sirt6 [2] = system: Sirt6; parameters: method as in PMID 25004411; conditions: cited from earlier work; for inhibition of enzymatic activity: 200 μM concentration
Sirt2 = target: T2, Sirt2 (Homo sapiens, UniProt Q8IXJ6); experiment: Ki determination with substrate 3, 96-well MTP fluorescence reader; type: biochemical
T2 construct: made in house
T2 sequence (Q8IXJ6 1-389): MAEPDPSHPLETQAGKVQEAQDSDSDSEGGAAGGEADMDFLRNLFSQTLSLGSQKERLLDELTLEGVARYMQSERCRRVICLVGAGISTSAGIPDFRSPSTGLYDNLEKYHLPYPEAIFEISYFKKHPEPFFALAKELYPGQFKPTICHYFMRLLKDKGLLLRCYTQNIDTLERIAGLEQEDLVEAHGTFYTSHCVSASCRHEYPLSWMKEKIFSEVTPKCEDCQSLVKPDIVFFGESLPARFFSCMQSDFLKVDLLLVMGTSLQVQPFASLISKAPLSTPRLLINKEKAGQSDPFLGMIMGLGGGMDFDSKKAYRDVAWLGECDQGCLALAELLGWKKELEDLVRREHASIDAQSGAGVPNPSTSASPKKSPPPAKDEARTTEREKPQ
Procedure: The microtiter plate fluorescence measurements were performed on a Tecan Infinite M200 microplate reader (Maennedorf, Switzerland) at λEx = 320 nm and λEm = 408 nm (lag time 9 μs, integration time […], gain 160, 170 or 182). The reactions (total volume 100 μl) were measured in black low-binding 96-well microtiter plates (NUNC). Assay-buffer, 500 μM NAD^+ and 0.07–200 μM peptide substrate were pre-incubated at 37 °C for 5 min. The reaction was started by adding human sirtuin (0.01–0.5 μM). The signals were converted into product concentration via calibration lines and the resulting data were evaluated as described above (single fluorescence measurement). The determination for the kinetic constants of NAD^+ was performed in the same way, except that the peptide concentration was fixed (5, 25 or 200 μM) and the NAD^+ concentration was varied (10–1500 μM). All measurements were done in duplicates. The reaction mixture for the calibration lines was prepared as described for the single fluorescence measurements. […] The resulting plots were analyzed by a competitive inhibition and non-competitive inhibition model using the program Sigma Plot 8. The linear regression of the apparent KM-values against the corresponding inhibitor concentration yielded the inhibitor constant Ki for competitive inhibition. The Ki for non-competitive inhibition was determined by linear regression of 1/apparent Vmax against the corresponding inhibitor concentration. The negative Ki value can be determined as intersection with the X-axis from these plots.
Supplementary Figure S15. Kinetic characteristics for sirtuin inhibitor 8. The reactions were performed with 0.01 µM Sirt2 /0.1 µM Sirt3 /0.5 µM Sirt6 and 500 µM NAD^+ and varying concentrations of 3 (0.07-100 µM). […] The negative Ki value can be determined as intersection with the X-axis from the Vmax^app-1/I plot.
Supplementary Figure S16. […] The negative Ki value can be determined as intersection with the X-axis from the Vmax^app-1/I plot.
Supplementary Figure S17. […] The negative Ki value can be determined as intersection with the X-axis from the Vmax^app-1/I plot.

Sirt6 [3] = target: T1, Sirt6; experiment: Isomer specific inhibition by thioxo peptides, HPLC; type: biochemical; conditions: substrate 2a
Procedure: After 30 min incubation at 20 °C reaction was stopped using 10% TFA solution. Inhibitor solutions were irradiated at 254 nm for 5 min. Separated isomers were applied in concentrations from 1 to 10 μM. The influence of cis content on sirtuin inhibition using fluorescence spectrometer was determined with 500 μM NAD^+, 5 μM 3, 0.1 μM Sirt2 and 0.1 μM 9. Reactions were done at 20 °C with 9 in GS and PSS (after 5 min irradiation at 254 nm). 9 in PSS was applied immediately after irradiation (transfer time ~5 s) and started directly by adding sirtuin. Reactions were measured within 1 min to avoid re-isomerization.
Supplementary Figure S36. Determination of IC50 value of 8 for Sirt6 in GS (?) and PSS (π). Data were fitted with U(%) = Umin(%) + (Umax(%) – Umin(%))/(1+10^(x-logIC50)) with U(%) percental turmover of substrate 2a; Umin(%) lowest turnover of substrate; Umax(%) maximal turnover of substrate (n=3).
Supplementary Figure S37. Inhibition of Sirt6 by 8 (?) and 9 (π).Data were fitted with U(%) = Umin(%) + (Umax(%) – Umin(%))/(1+10^(x-logIC50)) with U(%) percental turmover of substrate; Umin(%) lowest turnover of substrate 2a; Umax(%) maximal turnover of substrate (n=3).
Supplementary Figure S38. Determination of IC50 of 9 for Sirt6 with 72.4 % cis- (π) and 70.3 % (?) trans-content. Measurements were done with 10 µM peptide substrate (big figure) or 30 µM (small figure). Data were fitted with U(%) = Umin(%) + (Umax(%) – Umin(%))/(1+10^(x-logIC50)) with U(%) percental turmover of substrate 2a; Umin(%) lowest turnover of substrate; Umax(%) maximal turnover of substrate (n=3).

Sirt1 = target: T3, Sirt1 (Homo sapiens, UniProt Q96EB6); experiment: HPLC based activity assay, influence of resveratrol on Sirt1 mediated deacylation of 3; type: biochemical; conditions: 0-100 µM resveratrol; Sirt1 0.5 µM, 3 20 µM, NAD+ 500 µM, 60 minutes at 37°C
T3 construct: made in house
T3 sequence (Q96EB6 1-747): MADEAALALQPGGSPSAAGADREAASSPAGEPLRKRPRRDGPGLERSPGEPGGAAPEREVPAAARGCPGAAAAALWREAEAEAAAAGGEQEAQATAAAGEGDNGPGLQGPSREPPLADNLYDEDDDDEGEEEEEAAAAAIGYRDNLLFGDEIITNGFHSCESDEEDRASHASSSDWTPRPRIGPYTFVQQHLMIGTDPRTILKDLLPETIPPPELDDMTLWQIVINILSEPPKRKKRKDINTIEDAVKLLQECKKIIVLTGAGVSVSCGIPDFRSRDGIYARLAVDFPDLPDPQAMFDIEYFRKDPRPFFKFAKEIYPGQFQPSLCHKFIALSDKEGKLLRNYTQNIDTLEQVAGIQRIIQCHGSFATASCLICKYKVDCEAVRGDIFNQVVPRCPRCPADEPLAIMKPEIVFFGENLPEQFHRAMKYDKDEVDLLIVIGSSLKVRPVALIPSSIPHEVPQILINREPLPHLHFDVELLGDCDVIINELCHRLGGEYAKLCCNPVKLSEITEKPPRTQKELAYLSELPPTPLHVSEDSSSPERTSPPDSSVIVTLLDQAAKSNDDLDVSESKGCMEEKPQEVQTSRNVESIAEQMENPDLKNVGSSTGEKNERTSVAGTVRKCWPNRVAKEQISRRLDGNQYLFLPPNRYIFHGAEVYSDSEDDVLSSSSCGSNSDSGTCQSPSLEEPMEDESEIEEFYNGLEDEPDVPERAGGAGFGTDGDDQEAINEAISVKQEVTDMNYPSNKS
Procedure: For the determination of kinetic constants for all sirtuin mediated reactions solutions containing 20 mM TRIS/HCl pH 7.8, 150 mM NaCl, 5 mM MgCl2 (assay-buffer), 500 μM NAD^+ and varying substrate concentrations (0.5–100 μM) were used. Deacylation was started by adding human sirtuin to reach a final concentration of 0.01–0.5 μM. Enzyme-catalyzed reaction was stopped using TFA (1% final concentration) after 1 min to 180 min of incubation at 37 °C depending on substrate reactivity. The cleavage rate of the different TNFα peptide derivatives was analyzed using analytical reversed phase HPLC. 40 to 80 μl of compounds or reaction solutions were injected and separated using a linear gradient from 5% to 95% solvent B within 6min. The product and substrate peaks were quantified using absorbance at 220 nm or 365 nm (absorption of 3-Nitrotyrosyl moiety). The peak areas were integrated and converted to initial velocity rates calculated from the ratio of product area to total peak area. Linear regression of conversions plotted against time yielded reaction rates in μM/min (relative conversion below 20% of substrate). […]
Supplementary Figure S4. […] Reaction was stopped using TFA (1% final concentration) and the consumption of 3 was analyzed using HPLC. […]

In the case of `NC(=O)C1CCCc2c1[nH]c1ccc(Cl)cc21` (centres unmarked) [Ex-527], the Ki (Sirt6 [1]; Sirt6 0.5 µM, varying substrate 3, 500 µM NAD+ (saturating)) is listed as 100 ± 11 µM, the “type of inhibition with respect to the peptide substrate” value (Sirt6 [1]) is listed as “non-competitive” and the “inhibition of enzymatic activity” value (Sirt6 [2]) is listed as 56%.
In the case of `O=c1c(O)c(-c2ccc(O)c(O)c2)oc2cc(O)cc(O)c12` [Quercetin], the “type of inhibition with respect to the peptide substrate” value (Sirt6 [1]) is listed as “non-competitive” and the “inhibition of enzymatic activity” value (Sirt6 [2]) is listed as 52%.
`CC(C)[C@@H]1NC(=O)[C@H](Cc2c[nH]cn2)NC(=O)[C@H](Cc2ccc(O)cc2)NC(=O)[C@H]([C@@H](C)O)NC(=O)[C@H](Cc2c[nH]cn2)NC(=O)[C@H](Cc2ccc(O)cc2)NC(=O)CSC[C@@H](C(N)=O)NC(=O)[C@H](Cc2ccc(O)cc2)NC(=O)[C@H](Cc2ccc(O)cc2)NC(=O)[C@H](CC(N)=O)NC(=O)[C@H]([C@@H](C)O)NC(=O)[C@H](CCCNC(=N)N)NC(=O)[C@H](CCCNC(=N)N)NC(=O)[C@H](CCCCNC(=O)C(F)(F)F)NC1=O` [S2iL5] ({CH2CO}-YHTYHVK(Tfa)RRTNYYC-NH2; thioether N-14) gave a Ki (Sirt2; Sirt2 0.01 µM, varying substrate 3, 500 µM NAD+, read-out: Ki (3)) of 0.6 ± 0.2 µM and a Ki (Sirt2; Sirt2, substrate 3, read-out: Ki-value) of 0.56 µM.
For `CCCCCCCCCCCCCC(=S)N(C)CCCC[C@H](NC(=O)[C@H](CCCCN)NC(=O)[C@@H]1CCCN1C(=O)[C@H](CC(C)C)NC(=O)[C@H](C)NC(=O)[C@H](CCC(=O)O)NC(C)=O)C(=O)N[C@H](C(=O)NCC(=O)NCC(N)=O)[C@@H](C)O` [compound 9] (Ac-EALPK[X1]TGG-NH2), the IC50 (Sirt6 [3]; inhibitor with 29.7% cis isomer (HPLC-separated)) was 1.7 ± 0.5 µM and the IC50 (Sirt6 [3]; inhibitor with 72.4% cis isomer (HPLC-separated)) was 0.6 ± 0.1 µM.
In the case of `Oc1ccc(/C=C/c2cc(O)cc(O)c2)cc1` [resveratrol], the “influence on Sirt1 mediated deacylation of 3” value (Sirt1) is reported as “no significant influence”.
